Patent publication US20230314454A1, “BLOOD COAGULATION TEST REAGENT, AND BLOOD COAGULATION TEST METHOD” (Thrombo Translational Research Lab Inc., priority 2020, published 2023)

Experiments:
[1] = tested on: thrombin generation in patient plasma; assay: Thrombin generation test (TF/FXIa initiation reagent), apixaban spiked into patient plasma; format: biochemical, human
Protocol: (§1) In test, plasma specimens were prepared by centrifugation of blood that was collected using an anticoagulant citric acid. The plasma specimens were frozen at −80° C. until the test starts, and thawed at 37° C. immediately before the test, and used.
(§2) The thrombin generation initiation reagent was prepared by mixing the following reagents. The thrombin formation initiation reagent was appropriately diluted with 50 mM tris buffer solution containing 0.5% bovine serum albumin (purchased from FUJIFILM Wako Pure Chemical Corporation) and 0.15 M sodium chloride (purchased from FUJIFILM Wako Pure Chemical Corporation) (BSA/TBS, pH 7.4). • Human TF (Dade Innovin, purchased from SYSMEX CORPORATION) solution • Human FXIa (purchased from Funakoshi Co., Ltd.) solution • Synthetic phospholipids (purchased from Haematex) solution • Calcium chloride (purchased from FUJIFILM Wako Pure Chemical Corporation) solution […]
(§3) To quantify the generated thrombin, the thrombin detection reagent containing EDTA, which was a reaction stopping reagent, was then added to the plasma, followed by incubation at 37° C. for 1 minute. Since thrombin hydrolyzed the thrombin fluorogenic substrate to emit fluorescence during the incubation, the fluorescence intensity was measured using a fluorescence plate reader (excitation wavelength: 355 nm, fluorescence wavelength: 460 nm). The measured fluorescence intensity was converted into the thrombin concentration based on a standard curve constructed using a thrombin standard substance (Technothrombin TGA calibrator, purchased from Cosmo Bio Co., Ltd.). The thrombin generation in the plasma was expressed as a relative ratio (%) with respect to the thrombin generation in control plasma (Siemens control plasma N for blood coagulation test, purchased from SYSMEX CORPORATION).
To test inhibitory effect of the DOACs on thrombin generation, Test specimens were prepared by spiking rivaroxaban, apixaban, or edoxaban into plasma, and the thrombin generation in the plasma was assessed. […]

[2] = tested on: thrombin generation in plasma; assay: Thrombin generation in plasma over time after taking apixaban; format: in vivo, human; conditions: patients #004 and #005, 10 mg apixaban taken
Protocol: as §1
The thrombin generation initiation reagent was prepared by mixing the following reagents. […]
as §3, with “CORPORATION). […]” for “CORPORATION).”

[3] = tested on: blood coagulant activity (clotting time); assay: Blood coagulation tests APTT and PT-INR in plasma after taking apixaban; format: in vivo, human; conditions: patients #004 and #005, after taking 10 mg apixaban
Protocol: The coagulant activity of each of the test plasma specimen was tested using APTT and PT-INR test methods as blood coagulation tests. In both methods, the coagulant activity was determined by measuring clotting time after adding the coagulation initiation reagent into plasma specimens.

[4] = tested on: thrombin generation in control plasma; assay: Thrombin generation test (TF/FXIa initiation reagent), DOACs spiked into control plasma; format: biochemical, human; conditions: DOAC added to control plasma at 18.5 ng/mL to 500 ng/mL; FIG. 2
Protocol: as §2
as §3, with “The thrombin generation in the plasma was expressed as a relative ratio (%) with respect to the thrombin generation in control plasma (Siemens control plasma N for blood coagulation test, purchased from SYSMEX CORPORATION).” left out

Compound | effect of apixaban addition on thrombin generation in patient plasma ([1]; apixaban 125, 250 or 500 ng/mL, plasma of patients #001, #002, #003, 150 fM TF, 12.5 pM FXIa) | thrombin generation relative to control plasma ([1]; plasma of patient #003 after adding apixaban (125-500 ng/mL)) [%] | thrombin generation relative to control plasma ([1]; plasma of patients #001 and #002 after adding apixaban (125-500 ng/mL)) [%] | change in thrombin generation after taking apixaban [2] | change in blood coagulant activities measured by APTT and PT-INR [3] | inhibitory effect on thrombin generation compared among the three DOACs [4]
COc1ccc(-n2nc(C(N)=O)c3c2C(=O)N(c2ccc(N4CCCCC4=O)cc2)CC3)cc1 [apixaban] | suppressed thrombin generation in the plasma from the patient in a dose-dependent fashion | 25 | ≤ 5 | decreased with increase in apixaban concentrations | no significant alteration | –
O=C(NC[C@H]1CN(c2ccc(N3CCOCC3=O)cc2)C(=O)O1)c1ccc(Cl)s1 [rivaroxaban] | – | – | – | – | – | strongest inhibitory effect
